Patent US12180146B2, “Antihypertensive polyol compound and derivative thereof” (TAO PHARMACEUTICAL (SUZHOU) CO., LTD, priority 2020, dated 2024)

Tested on: spontaneously hypertensive rats (SHR)
Assay: Antihypertensive activity test: blood pressure and heart rate of spontaneously hypertensive rats (SHR)
Assay type: in vivo, rat
Settings: 200 mg/kg; for SHR heart rate, time after administration 0 h / SHR heart rate, time after administration 1 h / SHR heart rate, time after administration 2 h / SHR heart rate, time after administration 3 h / SHR heart rate, time after administration 4 h / SHR heart rate, time after administration 5 h / SHR heart rate, time after administration 6 h: N = 8; for SHR blood pressure (SBP), time after administration 1 h / SHR blood pressure (SBP), time after administration 2 h / SHR blood pressure (SBP), time after administration 3 h / SHR blood pressure (SBP), time after administration 4 h / SHR blood pressure (SBP), time after administration 5 h / SHR blood pressure (SBP), time after administration 6 h / Blood pressure (SBP, mmHg) After administration / Heart rate (beat/min) After administration / Blood pressure (SBP, mmHg) Baseline / Heart rate (beat/min) Baseline: n = 8; for Blood pressure (SBP, mmHg) After administration / Heart rate (beat/min) After administration: after administration (6 h M ± SD); for Heart rate Difference (beat/min): after administration minus baseline (6 h); for Blood pressure Difference mmHg: baseline minus after administration (6 h); for Blood pressure (SBP, mmHg) Baseline / Heart rate (beat/min) Baseline: before administration, M ± SD
Method: Tested Drugs: Compounds of the Invention. The dosage of all compound was uniformly set to 200 mg/kg.
In the test, changes in the blood pressure before and after the administration were detected, and compared with the basic value, a reduction of SBP ≥20 mmHg after administration was judged as effective antihypertensive effects; and at the same time, changes in the heart rate before and after the administration were detected.
Heart rate was expressed as mean±standard deviation (x±s). The changes of heart rate before and after the administration were compared by using Two-sample equal variance paired t test, and P<0.05 was regarded as the standard of statistically significant difference.

Structure (SMILES)	SBP Difference before and after administration, 1 h	SHR blood pressure (SBP), time after administration 1 h	SBP Difference before and after administration, 2 h	SHR blood pressure (SBP), time after administration 2 h	SBP Difference before and after administration, 3 h	SHR blood pressure (SBP), time after administration 3 h	SBP Difference before and after administration, 4 h	SHR blood pressure (SBP), time after administration 4 h	SBP Difference before and after administration, 5 h	SHR blood pressure (SBP), time after administration 5 h	SBP Difference before and after administration, 6 h	SHR blood pressure (SBP), time after administration 6 h	further results
Cc1ccc(C(O)CO)cc1 (stereo not drawn) [Compound 12]	3 mmHg	184 ± 10.6 mmHg	5 mmHg	182 ± 10.4 mmHg	4 mmHg	183 ± 9.90 mmHg	9 mmHg	178 ± 6.61 mmHg	5 mmHg	182 ± 7.25 mmHg	3 mmHg	184 ± 12.1 mmHg	SHR heart rate, time after administration 0 h (0 h): 333 ± 44.0 beat/min; Heart rate Difference before and after administration, 1 h: −5 beat/min; SHR heart rate, time after administration 1 h: 328 ± 47.6 beat/min; Heart rate Difference before and after administration, 2 h: 8 beat/min; SHR heart rate, time after administration 2 h: 342 ± 46.9 beat/min; Heart rate Difference before and after administration, 3 h: 15 beat/min; SHR heart rate, time after administration 3 h: 348 ± 53.2 beat/min; Heart rate Difference before and after administration, 4 h: 3 beat/min; SHR heart rate, time after administration 4 h: 336 ± 54.5 beat/min; Heart rate Difference before and after administration, 5 h: −3 beat/min; SHR heart rate, time after administration 5 h: 331 ± 51.0 beat/min; Heart rate Difference before and after administration, 6 h: 3 beat/min; SHR heart rate, time after administration 6 h: 336 ± 52.7 beat/min; Blood pressure (SBP, mmHg) After administration: 181 ± 8.80 mmHg; Heart rate (beat/min) After administration: 336 ± 49.5 beat/min; Heart rate Difference (beat/min): 3 beat/min; Blood pressure Difference mmHg: 6 mmHg; Blood pressure (SBP, mmHg) Baseline: 187 ± 11.9 mmHg; Heart rate (beat/min) Baseline: 333 ± 44.0 beat/min
CCC(O)c1cccc(CO)c1 (stereo not drawn) [Compound 13]	3 mmHg	186 ± 12.4 mmHg	12 mmHg	178 ± 12.0 mmHg	19 mmHg	171 ± 13.1 mmHg	14 mmHg	176 ± 11.4 mmHg	10 mmHg	180 ± 11.9 mmHg	14 mmHg	176 ± 10.1 mmHg	SHR heart rate, time after administration 0 h (0 h): 319 ± 21.0 beat/min; Heart rate Difference before and after administration, 1 h: 6 beat/min; SHR heart rate, time after administration 1 h: 325 ± 24.2 beat/min; Heart rate Difference before and after administration, 2 h: 14 beat/min; SHR heart rate, time after administration 2 h: 332 ± 38.9 beat/min; Heart rate Difference before and after administration, 3 h: 17 beat/min; SHR heart rate, time after administration 3 h: 335 ± 43.8 beat/min; Heart rate Difference before and after administration, 4 h: 15 beat/min; SHR heart rate, time after administration 4 h: 334 ± 45.8 beat/min; Heart rate Difference before and after administration, 5 h: 10 beat/min; SHR heart rate, time after administration 5 h: 329 ± 39.5 beat/min; Heart rate Difference before and after administration, 6 h: 2 beat/min; SHR heart rate, time after administration 6 h: 320 ± 43.1 beat/min; Blood pressure (SBP, mmHg) After administration: 178 ± 11.2 mmHg; Heart rate (beat/min) After administration: 329 ± 27.7 beat/min; Heart rate Difference (beat/min): 10 beat/min; Blood pressure Difference mmHg: 12 mmHg; Blood pressure (SBP, mmHg) Baseline: 190 ± 13.2 mmHg; Heart rate (beat/min) Baseline: 319 ± 21.0 beat/min
COc1ccc([C@@H](O)[C@H](C)O)cc1Cl [Compound 14]	3 mmHg	182 ± 11.6 mmHg	7 mmHg	178 ± 10.8 mmHg	8 mmHg	177 ± 10.9 mmHg	5 mmHg	18 ± 15.80 mmHg	1 mmHg	184 ± 16.0 mmHg	−1 mmHg	186 ± 17.7 mmHg	
CC(=O)OC(C)C(OC(C)=O)c1ccccc1 (stereo not drawn) [Compound 15]	14 mmHg	176 ± 9.55 mmHg	18 mmHg	172 ± 7.36 mmHg	21 mmHg	169 ± 4.07 mmHg	17 mmHg	173 ± 7.15 mmHg	15 mmHg	175 ± 5.61 mmHg	10 mmHg	180 ± 6.66 mmHg	
COc1ccc(C(O)C(=O)O)cc1 (stereo not drawn) [Compound 17]	9 mmHg	186 ± 12.4 mmHg	7 mmHg	188 ± 12.0 mmHg	14 mmHg	181 ± 13.1 mmHg	9 mmHg	186 ± 11.4 mmHg	15 mmHg	180 ± 11.9 mmHg	9 mmHg	186 ± 10.1 mmHg	SBP Difference before and after administration, 0 h (0 h): 0 mmHg
OCC(O)C(OC1OC(CO)C(O)C(O)C1O)c1ccc(O)cc1 (stereo not drawn) [Compound 18]	16 mmHg	176 ± 6.39 mmHg	18 mmHg	174 ± 4.50 mmHg	21 mmHg	171 ± 9.15 mmHg	19 mmHg	173 ± 13.7 mmHg	18 mmHg	174 ± 15.9 mmHg	14 mmHg	178 ± 8.78 mmHg	
CCOC(=O)OC(CO)c1cccc(CC)c1 (stereo not drawn) [Compound 19]	12 mmHg	182 ± 11.6 mmHg	16 mmHg	178 ± 10.8 mmHg	17 mmHg	177 ± 10.9 mmHg	13 mmHg	181 ± 15.80 mmHg	10 mmHg	184 ± 16.0 mmHg	8 mmHg	186 ± 17.7 mmHg	
